Laboratory results reported in patent US4451448A, “1-Substituted tricyclic quinazolinones useful as tranquilizers” (Sandoz, Inc., priority 1982, dated 1984).

Test system: isolated calf brain benzodiazepine receptors
Assay: Flunitrazepam Receptor Binding Assay (FBA TEST No. 1), displacement of 3H-flunitrazepam
Settings: compound at final concentration of 1×10^-6 M; calf caudate tissue; 1 µM

| Compound | percent specifically bound 3H-flunitrazepam compared to control |
| --- | --- |
| C=CCN1CCn2c1nc1ccc(Cl)cc1c2=O [Example 1, 1-allyl-7-chloro-2,3-dihydro-imidazo[2,1-b]quinazolin-5(1H)-one] | 13 % of control |
| O=c1c2cc(Cl)ccc2nc2n1CCN2C1CCCC1 [Example 2, 7-chloro-1-cyclopentyl-2,3-dihydro-imidazo[2,1-b]quinazolin-5(1H)-one] | 19 % of control |
